Measured values published in patent publication US9062074B2, “(9E)-15-(2-pyrrolidin-1-yl-ethoxy)-7,12,25-trioxa-19,21,24-triaza-tetracyclo[18.3.1.1(2.5).1(14,18)]hexacosa-1(24),2,4,9,14,16,18(26),20,22-nonaene citrate salt” (CTI BioPharma Corp., priority 2009, dated 2015).
Read-outs that look alike come from different tables or passages of the source.

Legend:
Type in all cases: physicochemical
[1] = Phase stability by XRPD after storage at 40° C. and 75% relative humidity for one week; conditions: solid form by low resolution XRPD after one week
Procedure: Condition 2 (Low Resolution)
X-Ray Powder Diffraction patterns were also collected on a Bruker D8 diffractometer using Cu K[…] radiation (40 kV, 40 mA), θ-2θ goniometer, and divergence of V4 and receiving slits, a Ge monochromator and a Lynxeye detector. The instrument is performance checked using a certified Corundum standard (NIST 1976). The software used for data collection was Diffrac Plus XRD Commander v2.5.0 and the data were analysed and presented using Diffrac Plus EVA v 11.0.0.2 or v 13.0.0.2. Samples were run under ambient conditions as flat plate specimens using powder as received. Approximately 15 mg of the sample was gently packed into a cavity cut into polished, zerobackground (510) silicon wafer. The sample was rotated in its own plane during analysis. The details of the data collection are:
The samples which had been prepared for the collection of low resolution XRPD traces were placed in a chamber maintained at 40° C. and 75% relative humidity. After one week the samples were reanalysed by low resolution XRPD (Condition 2), to check for phase changes. It can be seen that no phase change has occurred, and that citrate salts of the invention are stable for at least one week under these conditions.

[2] = Solubility assessment (solvent added in 10 volume aliquots); conditions: thermodynamic from solid, read-out: Solubility assessment observation
Procedure: For each solvent investigated, approximately 8 mg of compound 1 was weighed into an 8 ml screw top glass vial. The solvent was added in 10 volume aliquots and the mixture sonicated and warmed (with a hot-air gun) to encourage dissolution. If dissolution was not achieved after the addition of 100 volumes of solvent, a further 100 volumes was added.

[3] = Differential Scanning Calorimetry (DSC); conditions: heated at 10° C.min^−1
Procedure: Differential Scanning Calorimetry (DSC) data were collected on a Mettler DSC 823e equipped with a 34 position auto-sampler. The instrument was calibrated for energy and temperature using certified indium. Typically 0.5-3 mg of each sample, in a pin-holed aluminium pan, was heated at 10° C.min^−1 from 25° C. to 350° C. A nitrogen purge at 50 ml.min^−1 was maintained over the sample. The instrument control and data analysis software was STARe v9.10.

[4] = Thermogravimetric Analysis (TGA)
Procedure: Thermogravimetric Analysis (TGA) data were collected on a Mettler TGA/SDTA 851e equipped with a 34 position autosampler. The instrument was temperature calibrated using certified indium. Typically 5-30 mg of each sample was loaded onto a pre-weighed aluminium crucible and was heated at 10° C.min^−1 from ambient temperature to 350° C. A nitrogen purge at 50 ml.min^−1 was maintained over the sample. The instrument control and data analysis software was STARe v9.10.

Phase Stability 1 wk @ 40° C./75% RH [1]: Crystalline Form 1 | solubility ([2]; IPA, organic solvent or mixture, IPA, 10 vols): < 100 mg/mL | solubility ([2]; IPA, organic solvent or mixture, IPA, 20 vols): < 50 mg/mL | solubility ([2]; IPA, organic solvent or mixture, IPA, 30 vols): < 33.3 mg/mL | solubility ([2]; IPA, organic solvent or mixture, IPA, 40 vols): < 25 mg/mL | solubility ([2]; IPA, organic solvent or mixture, IPA, 60 vols): < 16.7 mg/mL | solubility ([2]; IPA, organic solvent or mixture, IPA, 80 vols): < 12.5 mg/mL | solubility ([2]; IPA, organic solvent or mixture, IPA, 100 vols): < 10 mg/mL | solubility ([2]; IPA, organic solvent or mixture, IPA, 200 vols): < 5 mg/mL | solubility ([2]; MEK, organic solvent or mixture, MEK, 10 vols): < 100 mg/mL | solubility ([2]; MEK, organic solvent or mixture, MEK, 20 vols): < 50 mg/mL | solubility ([2]; MEK, organic solvent or mixture, MEK, 30 vols): < 33.3 mg/mL | solubility ([2]; MEK, organic solvent or mixture, MEK, 40 vols): < 25 mg/mL | solubility ([2]; MEK, organic solvent or mixture, MEK, 50 vols): < 20 mg/mL | solubility ([2]; MEK, organic solvent or mixture, MEK, 60 vols): < 16.7 mg/mL | solubility ([2]; MEK, organic solvent or mixture, MEK, 80 vols): < 12.5 mg/mL | solubility ([2]; MEK, organic solvent or mixture, MEK, 100 vols): < 10 mg/mL | solubility ([2]; MEK, organic solvent or mixture, MEK, 200 vols): < 5 mg/mL | solubility ([2]; THF, organic solvent or mixture, THF, 10 vols): < 100 mg/mL | solubility ([2]; THF, organic solvent or mixture, THF, 20 vols): < 50 mg/mL | solubility ([2]; THF, organic solvent or mixture, THF, 30 vols): < 33.3 mg/mL | solubility ([2]; THF, organic solvent or mixture, THF, 40 vols): < 25 mg/mL | solubility ([2]; THF, organic solvent or mixture, THF, 60 vols): < 16.7 mg/mL | solubility ([2]; THF, organic solvent or mixture, THF, 80 vols): < 12.5 mg/mL | solubility ([2]; THF, organic solvent or mixture, THF, 100 vols): < 10 mg/mL | solubility ([2]; THF, organic solvent or mixture, THF, 200 vols): < 5 mg/mL | solubility ([2]; acetone, organic solvent or mixture, Acetone, 10 vols): < 100 mg/mL | solubility ([2]; acetone, organic solvent or mixture, Acetone, 20 vols): < 50 mg/mL | solubility ([2]; acetone, organic solvent or mixture, Acetone, 40 vols): < 25 mg/mL | solubility ([2]; acetone, organic solvent or mixture, Acetone, 60 vols): < 16.7 mg/mL | solubility ([2]; acetone, organic solvent or mixture, Acetone, 80 vols): < 12.5 mg/mL | solubility ([2]; acetone, organic solvent or mixture, Acetone, 100 vols): < 10 mg/mL | solubility ([2]; acetone, organic solvent or mixture, Acetone, 200 vols): < 5 mg/mL | solubility ([2]; acetonitrile, organic solvent or mixture, Acetonitrile, 10 vols): < 100 mg/mL | solubility ([2]; acetonitrile, organic solvent or mixture, Acetonitrile, 20 vols): < 50 mg/mL | solubility ([2]; acetonitrile, organic solvent or mixture, Acetonitrile, 30 vols): < 33.3 mg/mL | solubility ([2]; acetonitrile, organic solvent or mixture, Acetonitrile, 40 vols): < 25 mg/mL | solubility ([2]; acetonitrile, organic solvent or mixture, Acetonitrile, 60 vols): < 16.7 mg/mL | solubility ([2]; acetonitrile, organic solvent or mixture, Acetonitrile, 80 vols): < 12.5 mg/mL | solubility ([2]; acetonitrile, organic solvent or mixture, Acetonitrile, 100 vols): < 10 mg/mL | solubility ([2]; acetonitrile, organic solvent or mixture, Acetonitrile, 200 vols): < 5 mg/mL | solubility ([2]; ethanol, organic solvent or mixture, Ethanol, 10 vols): < 100 mg/mL | solubility ([2]; ethanol, organic solvent or mixture, Ethanol, 20 vols): < 50 mg/mL | solubility ([2]; ethanol, organic solvent or mixture, Ethanol, 30 vols): < 33.3 mg/mL | solubility ([2]; ethanol, organic solvent or mixture, Ethanol, 40 vols): < 25 mg/mL | solubility ([2]; ethanol, organic solvent or mixture, Ethanol, 60 vols): < 16.7 mg/mL | solubility ([2]; ethanol, organic solvent or mixture, Ethanol, 80 vols): < 12.5 mg/mL | solubility ([2]; ethanol, organic solvent or mixture, Ethanol, 100 vols): < 10 mg/mL | solubility ([2]; ethanol, organic solvent or mixture, Ethanol, 200 vols): < 5 mg/mL | solubility ([2]; water, Water, 10 vols): > 100 mg/mL | Differential Scanning Calorimetry complex endotherm onset (significant thermal event) [3]: onset 178 °C | Thermogravimetric Analysis weight change ([4]; 160 to 250° C.): −21% w/w 160 to 250 °C | Thermogravimetric Analysis weight change ([4]; ambient to 160° C.): −0.4% w/w ambient to
SMILES: C1=C2COC/C=C/COCc3cc(ccc3OCCN3CCCC3)Nc3nccc(n3)C(=C1)O2 [Batch 5]
